# Data taken from ChEMBL document CHEMBL1212697, “High-content single-cell drug screening with phosphospecific flow cytometry” (Nat Chem Biol, 2008).
# How the values were obtained:
# [1] = Inhibition of JAK-mediated IL4-induced Stat5 phosphorylation in BALB/c mouse CD11b-int macrophages by Phospho-Flow cytometry
# [2] = Inhibition of JAK-mediated IL6-induced Stat1 phosphorylation in BALB/c mouse B cells by Phospho-Flow cytometry; assay type: cell-based
# [3] = Inhibition of JAK-mediated IL10-induced Stat3 phosphorylation in BALB/c mouse B cells by Phospho-Flow cytometry; assay type: cell-based
# [4] = Inhibition of JAK-mediated interferon-gamma-induced Stat1 phosphorylation in BALB/c mouse B cells by Phospho-Flow cytometry; assay type: cell-based
# [5] = Inhibition of JAK-mediated IL6-induced Stat3 phosphorylation in BALB/c mouse B cells by Phospho-Flow cytometry; assay type: cell-based
# [6] = Inhibition of JAK-mediated IL15-induced Stat5 phosphorylation in BALB/c mouse B cells by Phospho-Flow cytometry; assay type: cell-based
# [7] = Inhibition of JAK-mediated IL7-induced Stat5 phosphorylation in BALB/c mouse B cells by Phospho-Flow cytometry; assay type: cell-based
# [8] = Inhibition of JAK-mediated IL4-induced Stat5 phosphorylation in BALB/c mouse B cells by Phospho-Flow cytometry; assay type: cell-based
# [9] = Inhibition of JAK-mediated IL6-induced Stat1 phosphorylation in BALB/c mouse CD4+ T cells by Phospho-Flow cytometry; assay type: cell-based; settings: T-cell
# [10] = Inhibition of JAK-mediated IL10-induced Stat3 phosphorylation in BALB/c mouse CD4+ T cells by Phospho-Flow cytometry; assay type: cell-based; settings: T-cell
# [11] = Inhibition of JAK-mediated interferon-gamma-induced Stat1 phosphorylation in BALB/c mouse CD4+ T cells by Phospho-Flow cytometry; assay type: cell-based; settings: T-cell
# [12] = Inhibition of JAK-mediated IL6-induced Stat3 phosphorylation in BALB/c mouse CD4+ T cells by Phospho-Flow cytometry; assay type: cell-based; settings: T-cell
# [13] = Inhibition of JAK-mediated IL15-induced Stat5 phosphorylation in BALB/c mouse CD4+ T cells by Phospho-Flow cytometry; assay type: cell-based; settings: T-cell
# [14] = Inhibition of JAK-mediated IL7-induced Stat5 phosphorylation in BALB/c mouse CD4+ T cells by Phospho-Flow cytometry; assay type: cell-based; settings: T-cell
# [15] = Inhibition of JAK-mediated IL4-induced Stat6 phosphorylation in BALB/c mouse CD4+ T cells by Phospho-Flow cytometry; assay type: cell-based; settings: T-cell
# [16] = Inhibition of JAK-mediated IL4-induced Stat5 phosphorylation in BALB/c mouse CD4+ T cells by Phospho-Flow cytometry; assay type: cell-based; settings: T-cell
# [17] = Inhibition of JAK-mediated IL6-induced Stat1 phosphorylation in BALB/c mouse CD8+ T cells by Phospho-Flow cytometry; assay type: cell-based; settings: T-cell
# [18] = Inhibition of JAK-mediated IL10-induced Stat3 phosphorylation in BALB/c mouse CD8+ T cells by Phospho-Flow cytometry; assay type: cell-based; settings: T-cell
# [19] = Inhibition of JAK-mediated interferon-gamma-induced Stat1 phosphorylation in BALB/c mouse […] T cells by Phospho-Flow cytometry; assay type: cell-based; settings: T-cell
# [20] = Inhibition of JAK-mediated IL6-induced Stat3 phosphorylation in BALB/c mouse CD8+ T cells by Phospho-Flow cytometry; assay type: cell-based; settings: T-cell
# [21] = Inhibition of JAK-mediated IL15-induced Stat5 phosphorylation in BALB/c mouse CD8+ T cells by Phospho-Flow cytometry; assay type: cell-based; settings: T-cell
# [22] = Inhibition of JAK-mediated IL7-induced Stat5 phosphorylation in BALB/c mouse CD8+ T cells by Phospho-Flow cytometry; assay type: cell-based; settings: T-cell
# [23] = Inhibition of JAK-mediated IL4-induced Stat6 phosphorylation in BALB/c mouse CD8+ T cells by Phospho-Flow cytometry; assay type: cell-based; settings: T-cell
# [24] = Inhibition of JAK-mediated IL4-induced Stat5 phosphorylation in BALB/c mouse CD8+ T cells by Phospho-Flow cytometry; assay type: cell-based; settings: T-cell
# [25] = Inhibition of JAK-mediated IL6-induced Stat1 phosphorylation in BALB/c mouse CD11b-hi neutrophils by Phospho-Flow cytometry
# [26] = Inhibition of JAK-mediated IL10-induced Stat3 phosphorylation in BALB/c mouse CD11b-hi neutrophils by Phospho-Flow cytometry
# [27] = Inhibition of JAK-mediated interferon-gamma-induced Stat1 phosphorylation in BALB/c mouse CD11b-hi neutrophils by Phospho-Flow cytometry
# [28] = Inhibition of JAK-mediated IL6-induced Stat3 phosphorylation in BALB/c mouse CD11b-hi neutrophils by Phospho-Flow cytometry
# [29] = Inhibition of JAK-mediated IL15-induced Stat5 phosphorylation in BALB/c mouse CD11b-hi neutrophils by Phospho-Flow cytometry
# [30] = Inhibition of JAK-mediated IL7-induced Stat5 phosphorylation in BALB/c mouse CD11b-hi neutrophils by Phospho-Flow cytometry
# [31] = Inhibition of JAK-mediated IL4-induced Stat5 phosphorylation in BALB/c mouse CD11b-hi neutrophils by Phospho-Flow cytometry
# [32] = Inhibition of JAK-mediated IL6-induced Stat1 phosphorylation in BALB/c mouse CD11b-int macrophages by Phospho-Flow cytometry
# [33] = Inhibition of JAK-mediated IL10-induced Stat3 phosphorylation in BALB/c mouse CD11b-int macrophages by Phospho-Flow cytometry
# [34] = Inhibition of JAK-mediated interferon-gamma-induced Stat1 phosphorylation in BALB/c mouse CD11b-int macrophages by Phospho-Flow cytometry
# [35] = Inhibition of JAK-mediated IL6-induced Stat3 phosphorylation in BALB/c mouse CD11b-int macrophages by Phospho-Flow cytometry
# [36] = Inhibition of JAK-mediated IL15-induced Stat5 phosphorylation in BALB/c mouse CD11b-int macrophages by Phospho-Flow cytometry
# [37] = Inhibition of JAK-mediated IL7-induced Stat5 phosphorylation in BALB/c mouse CD11b-int macrophages by Phospho-Flow cytometry
# [38] = Inhibition of JAK-mediated IL4-induced Stat6 phosphorylation in BALB/c mouse CD11b-int macrophages by Phospho-Flow cytometry
# [39] = target: T1, MAP kinase p38 (Homo sapiens, UniProt O15264+Q15759+Q16539+P53778); test: Inhibition of anisomycin-induced p38 phosphorylation in human U937 cells by Phospho-Flow cytometry; assay type: cell-based; settings: u-937
# [40] = target: T2, Janus Kinase (JAK) (Homo sapiens) (UniProt P52333+P23458+O60674+P29597); test: Inhibition of JAK-mediated GM-CSF-induced Stat5 phosphorylation in human U937 cells by Phospho-Flow cytometry at 20 uM; assay type: cell-based; settings: U-937
# [41] = target: T2, Janus Kinase (JAK) (Homo sapiens); test: Inhibition of JAK-mediated interferon-gamma-induced Stat1 phosphorylation in human U937 cells by Phospho-Flow cytometry at 20 uM; assay type: cell-based; settings: U-937
# [42] = target: T1, MAP kinase p38; test: Inhibition of anisomycin-induced p38 phosphorylation in human U937 cells by Phospho-Flow cytometry at 20 uM; assay type: cell-based; settings: U-937
structure (smiles),measurement,setting,value
C=CC(=O)c1ccc2ccccc2c1,IC50,[1],< 20 µM
same,IC50,[2],< 20 µM
same,IC50,[3],< 20 µM
same,IC50,[4],< 20 µM
same,IC50,[5],< 20 µM
same,IC50,[6],< 20 µM
same,IC50,[7],< 20 µM
same,IC50,[8],< 20 µM
same,IC50,[9],< 20 µM
same,IC50,[10],< 20 µM
same,IC50,[11],< 20 µM
same,IC50,[12],< 20 µM
same,IC50,[13],< 20 µM
same,IC50,[14],< 20 µM
same,IC50,[15],< 20 µM
same,IC50,[16],< 20 µM
same,IC50,[17],< 20 µM
same,IC50,[18],< 20 µM
same,IC50,[19],< 20 µM
same,IC50,[20],< 20 µM
same,IC50,[21],< 20 µM
same,IC50,[22],< 20 µM
same,IC50,[23],< 20 µM
same,IC50,[24],< 20 µM
same,IC50,[25],< 20 µM
same,IC50,[26],< 20 µM
same,IC50,[27],< 20 µM
same,IC50,[28],< 20 µM
same,IC50,[29],< 20 µM
same,IC50,[30],< 20 µM
same,IC50,[31],< 20 µM
same,IC50,[32],< 20 µM
same,IC50,[33],< 20 µM
same,IC50,[34],< 20 µM
same,IC50,[35],< 20 µM
same,IC50,[36],< 20 µM
same,IC50,[37],< 20 µM
same,IC50,[38],< 20 µM
COC1=C[C@]23CCCN2CCc2cc4c(cc2[C@@H]3[C@@H]1O)OCO4 [CEPHALOTAXINE],IC50,[39],0.2 µM
same,inhibition,[40],25%
same,inhibition,[41],> 65%
same,inhibition,[42],25%
